Test results: the supplement of paper PMC10307832

Tests used:
Assay in all cases: relative viability (nuclei count vs DMSO), 5 days (fraction); higher = more cells survive
Bosutinib + Dasatinib = compound: COc1cc(Nc2c(C#N)cnc3cc(OCCCN4CCN(C)CC4)c(OC)cc23)c(Cl)cc1Cl [Bosutinib] + Cc1nc(Nc2ncc(C(=O)Nc3c(C)cccc3Cl)s2)cc(N2CCN(CCO)CC2)n1 [Dasatinib] (partner 0.075 µM)
Summary of the method: (§1)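 Relative viability is defined as nuclei in treated wells over nuclei in vehicle wells. Duplicate plates were run and medians reported. Lung cancer cell lines in 1536-well plates were dosed by pin tool one day after seeding, with one drug or with a fixed anchor-drug dose plus five library-drug doses (not always all listed) in √10 steps, and nuclei were counted after 5 days.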

Bosutinib + Navitoclax = compound: COc1cc(Nc2c(C#N)cnc3cc(OCCCN4CCN(C)CC4)c(OC)cc23)c(Cl)cc1Cl [Bosutinib] + CC1(C)CCC(c2ccc(Cl)cc2)=C(CN2CCN(c3ccc(C(=O)NS(=O)(=O)c4ccc(N[C@H](CCN5CCOCC5)CSc5ccccc5)c(S(=O)(=O)C(F)(F)F)c4)cc3)CC2)C1 [Navitoclax] (partner 0.5 µM)
Summary of the method: as §1

Bosutinib + Trametinib = compound: COc1cc(Nc2c(C#N)cnc3cc(OCCCN4CCN(C)CC4)c(OC)cc23)c(Cl)cc1Cl [Bosutinib] + CC(=O)Nc1cccc(-n2c(=O)n(C3CC3)c(=O)c3c(Nc4ccc(I)cc4F)n(C)c(=O)c(C)c32)c1 [Trametinib] (partner 0.02 µM)
Summary of the method: as §1

Bosutinib + Foretinib = compound: COc1cc(Nc2c(C#N)cnc3cc(OCCCN4CCN(C)CC4)c(OC)cc23)c(Cl)cc1Cl [Bosutinib] + COc1cc2c(Oc3ccc(NC(=O)C4(C(=O)Nc5ccc(F)cc5)CC4)cc3F)ccnc2cc1OCCCN1CCOCC1 [Foretinib] (partner 0.25 µM)
Summary of the method: as §1

Bosutinib + Lapatinib = compound: COc1cc(Nc2c(C#N)cnc3cc(OCCCN4CCN(C)CC4)c(OC)cc23)c(Cl)cc1Cl [Bosutinib] + CS(=O)(=O)CCNCc1ccc(-c2ccc3ncnc(Nc4ccc(OCc5cccc(F)c5)c(Cl)c4)c3c2)o1 [Lapatinib] (partner 2 µM)
Summary of the method: as §1

Cell Line | relative viability (Bosutinib + Dasatinib; first compound 0.01 µM) | relative viability (Bosutinib + Dasatinib; first compound 0.03162 µM) | relative viability (Bosutinib + Dasatinib; first compound 0.1 µM) | relative viability (Bosutinib + Dasatinib; first compound 1 µM) | relative viability (Bosutinib + Navitoclax; first compound 0.01 µM) | relative viability (Bosutinib + Navitoclax; first compound 0.03162 µM) | relative viability (Bosutinib + Navitoclax; first compound 0.1 µM) | relative viability (Bosutinib + Navitoclax; first compound 1 µM) | relative viability (Bosutinib + Trametinib; first compound 0.01 µM) | relative viability (Bosutinib + Trametinib; first compound 0.03162 µM) | relative viability (Bosutinib + Trametinib; first compound 0.1 µM) | relative viability (Bosutinib + Trametinib; first compound 1 µM) | relative viability (Bosutinib + Foretinib; first compound 0.01 µM) | relative viability (Bosutinib + Foretinib; first compound 0.03162 µM) | relative viability (Bosutinib + Foretinib; first compound 0.1 µM) | relative viability (Bosutinib + Foretinib; first compound 1 µM) | relative viability (Bosutinib + Lapatinib; first compound 0.01 µM) | relative viability (Bosutinib + Lapatinib; first compound 0.03162 µM) | relative viability (Bosutinib + Lapatinib; first compound 0.1 µM) | relative viability (Bosutinib + Lapatinib; first compound 1 µM)
NCI-H2405 | 0.259 | 0.204 | 0.215 | 0.238 | 0.943 | 0.812 | 0.892 | 0.477 | 0.659 | 0.653 | 0.605 | 0.396 | 1.03 | 1.07 | 1.09 | 0.832 | 1.23 | 1.2 | 0.983 | 0.895
NCI-H3122 | 0.894 | 0.716 | 0.768 | 0.781 | 0.99 | 0.972 | 1.01 | 1.03 | 0.203 | 0.273 | 0.205 | 0.256 | 1.04 | 0.979 | 0.926 | 0.993 | 0.99 | 1.05 | 1.02 | 0.933
PC-3 [JPC-3] | 1.04 | 0.931 | 0.996 | 0.834 | 0.856 | 0.797 | 0.807 | 0.768 | 0.725 | 0.691 | 0.647 | 0.467 | 1 | 0.993 | 1.05 | 0.759 | 0.432 | 0.428 | 0.431 | 0.505
PC-14 | 0.282 | 0.239 | 0.238 | 0.0662 | 0.967 | 0.975 | 1.02 | 0.474 | 0.721 | 0.675 | 0.491 | 0.13 | 0.963 | 0.975 | 0.98 | 0.255 | 0.35 | 0.309 | 0.298 | 0.227
RERF-LC-KJ | 0.746 | 0.882 | 0.826 | 0.735 | 0.845 | 1.08 | 0.893 | 0.743 | 0.733 | 0.809 | 0.902 | 0.826 | 0.893 | 0.888 | 0.815 | 0.867 | 0.836 | 0.832 | 0.878 | 0.905
SK-LU-1 | 0.221 | 0.174 | 0.186 | 0.255 | 0.714 | 0.929 | 0.779 | 0.739 | 0.43 | 0.504 | 0.498 | 0.344 | 0.841 | 0.85 | 0.813 | 0.449 | 0.808 | 0.919 | 1 | 0.586
SK-MES-1 | 0.372 | 0.412 | 0.393 | 0.392 | 1.21 | 0.97 | 1.1 | 1.3 | 0.55 | 0.547 | 0.547 | 0.39 | 0.966 | 0.955 | 0.97 | 0.747 | 0.435 | 0.512 | 0.555 | 0.505
SW 1573 | 0.459 | 0.553 | 0.505 | 0.583 | 0.996 | 0.998 | 0.979 | 0.919 | 0.571 | 0.614 | 0.652 | 0.504 | 0.913 | 0.825 | 0.693 | 0.858 | 1.32 | 1.08 | 1.14 | 0.935
UMC-11 | 0.409 | 0.454 | 0.456 | 0.455 | 0.256 | 0.316 | 0.333 | 0.33 | 0.724 | 0.723 | 0.686 | 0.678 | 0.979 | 1.07 | 1.03 | 0.94 | 1.1 | 1.03 | 1.03 | 0.821
